Assay results from PMC5900554, “Fragment-Based Approach to Targeting Inosine-5′-monophosphate Dehydrogenase (IMPDH) from Mycobacterium tuberculosis” (Journal of Medicinal Chemistry, 2018).
Like-named read-outs stand apart in the source and are kept apart here.

What was measured:
[1] = target: T1, Mth IMPDH ΔCBS (Mycolicibacterium thermoresistibile, UniProt G7CNL4, R236G); test: Inhibition constants (Ki) and mode of inhibition against Mth IMPDH ΔCBS with respect to IMP and NAD+; format: biochemical, Mycobacterium thermoresistible; design: key to Pattern of inhibition with respect to IMP / Pattern of inhibition with respect to NAD: UC: Uncompetitive inhibition; conditions: for Pattern of inhibition with respect to IMP / Pattern of inhibition with respect to NAD: UC = uncompetitive; for Pattern of inhibition with respect to NAD / NAD αKi: with respect to NAD+; for NAD αKi: constant saturating IMP (1 mM); for Pattern of inhibition with respect to IMP / IMP αKi: with respect to IMP; for IMP αKi: fixed saturating NAD+ ([…])
Description: The inhibition constant [Ki] with respect to both substrates IMP and NAD^+ was determined by assaying various concentrations of each inhibitor with five different concentrations of substrate and a fixed saturating concentration of the cosubstrate.
(§1) The initial velocities at various inhibitor concentrations were determined based on the slope in the linear part of each reaction containing the inhibitor and the uninhibited reaction. To determine the inhibition constant (Ki values), the initial rate data versus substrate concentration at different inhibitor concentrations were fit using Prism software (GraphPad) to equations for uncompetitive or mixed inhibition. For each inhibitor concentration, the reciprocal of enzyme reaction velocity versus the reciprocal of the substrate concentration was plotted in a Lineweaver–Burk plot to determine the pattern of inhibition.

[2] = target: full-length Mtb IMPDH (Mycobacterium tuberculosis, UniProt P9WKI7); test: Inhibition constants toward full-length Mtb IMPDH; format: biochemical
Description: as §1

[3] = target: T1, Mth IMPDH ΔCBS; format: biochemical, Mycobacterium thermoresistible; conditions: SAR statement in text
[4] = IMP as the substrate, read-out: Ki with IMP as the substrate
[5] = NAD as the substrate, read-out: Ki with NAD as the substrate

Compound	Pattern of inhibition with respect to IMP [1]	Pattern of inhibition with respect to NAD [1]	NAD αKi [1]	IMP αKi [1]	Ki [2, 4]	Ki [2, 5]	Mth IMPDH ΔCBS inhibitory activity (in words) [3]
COc1ccc(OC(C)C(=O)Nc2ccc(I)cc2)cc1 (centres unmarked) [Compound 1, reference compound]	uncompetitive and UC	uncompetitive and UC	0.55 ± 0.02 µM	–	–	–	–
Brc1ccc(-c2c[nH]cn2)cc1 [Compound 2]	uncompetitive and UC	uncompetitive and UC	512 ± 23 µM	609 ± 3 µM	572 ± 14 µM	534 ± 18 µM	–
Oc1ccc2ccc(O)cc2c1 [Compound 11]	uncompetitive and UC	UC	310 ± 30 µM	361 ± 53 µM	–	–	–
O=C(O)c1cc2sccc2s1 [Compound 14]	Mixed	UC	262 ± 39 µM	238 ± 6 µM	–	–	–
Cc1ccc(-c2nc(C(=O)O)cs2)cc1 [Compound 16]	Mixed	UC	525 ± 64 µM	–	–	–	–
CC(=O)Nc1cc(C)ccc1O [Compound 18]	uncompetitive and UC	UC	452 ± 26 µM	554 ± 70 µM	–	–	–
CC1(C)Cc2cccc(CO)c2O1 [Compound 19]	Mixed	UC	355 ± 47 µM	126 ± 34 µM	–	–	–
CC(C)NC(=O)CSc1nc(-c2ccccc2)c[nH]1 [Compound 26, N-Isopropyl-2-((4-phenyl-1H-imidazol-2-yl)thio)acetamide]	–	–	–	–	–	–	complete loss of activity
O=C(O)CSc1nc(-c2ccc(Br)cc2)c[nH]1 [Compound 27, 2-((4-(4-Bromophenyl)-1H-imidazol-2-yl)thio)acetic Acid]	–	–	–	–	–	–	complete loss in activity
O=C(O)CSc1nc(-c2ccccc2)c[nH]1 [Compound 28, 2-((4-Phenyl-1H-imidazol-2-yl)thio)acetic Acid]	–	–	–	–	–	–	complete loss in activity
CC(Oc1ccc(-c2cn(C)cn2)cc1)C(=O)Nc1nc(-c2ccc(Br)cc2)c[nH]1 (centres unmarked) [Compound 31, N-(4-(4-Bromophenyl)-1H-imidazol-2-yl)-2-(4-(1-methyl-1H-imidazol-4-yl)phenoxy)propanamide]	uncompetitive	uncompetitive	0.20 ± 0.01 µM	0.30 ± 0.02 µM	0.61 ± 0.05 µM	0.39 ± 0.02 µM	–
CC(Oc1ccc(-c2cn(C)cn2)cc1)C(=O)Nc1ccccc1 (centres unmarked) [Compound 34, 2-(4-(1-Methyl-1H-imidazol-4-yl)phenoxy)-N-phenylpropanamide]	–	–	–	–	–	–	complete loss of activity
